Reference: ChEMBL document CHEMBL3045481, “Insecticide-induced resurgence of the whitebacked planthopper Sogatella furcifera (Horvath) (Hemiptera: Delphacidae) on rice varieties with different levels of resistance” (Crop Prot, 2011)
Calls of active or inactive are those of the source. The rule behind the calls is not given here.

Columns and labels:
Sogatella furcifera [1] = experiment: Insecticidal activity against Sogatella furcifera on insect-resistanct rice plant PR116 assessed as nymphal duration at 0.100% concentration (reference value: 11.75 days); assay type: functional
Oryza sativa [2] = experiment: Effect on total sugar level in Sogatella furcifera-resistanct Oryza sativa (rice) plant PR116 leaf blade measured per gram of dry weight at 0.100% concentration (reference value: 36.16 mg/g dry wt); assay type: ADME, organism-based; conditions: in vivo
Oryza sativa [3] = experiment: Effect on total protein level in Sogatella furcifera-sensitive Oryza sativa (rice) plant ARC6248 leaf blade measured per gram of dry weight at 0.100% concentration (reference value: 17.67 mg/g […]); assay type: ADME, organism-based; conditions: in vivo
Oryza sativa [4] = experiment: Effect on total sugar level in Sogatella furcifera-sensitive Oryza sativa (rice) plant ARC6248 leaf sheath measured per gram of dry weight at 0.100% concentration (reference value: 25.98 mg/g dry wt); assay type: ADME, organism-based; conditions: in vivo
Oryza sativa [5] = experiment: Effect on reducing sugar level in Sogatella furcifera-resistanct Oryza sativa (rice) plant PR116 leaf sheath measured per gram of dry weight at 0.100% concentration (reference value: 7.50 mg/g dry wt); assay type: ADME, organism-based; conditions: in vivo
Oryza sativa [6] = experiment: Effect on total phenols level in Sogatella furcifera-sensitive Oryza sativa (rice) plant ARC6248 leaf sheath measured per gram of dry weight at 0.100% concentration (reference value: 12.75 mg/g dry wt); assay type: ADME, organism-based; conditions: in vivo
Oryza sativa [7] = experiment: Effect on total protein level in Sogatella furcifera-resistanct Oryza sativa (rice) plant PR116 leaf blade measured per gram of dry weight at 0.100% concentration (reference value: 21.67 mg/g fresh wt); assay type: ADME, organism-based; conditions: in vivo
Oryza sativa [8] = experiment: Effect on total sugar level in Sogatella furcifera-sensitive Oryza sativa (rice) plant ARC6248 leaf blade measured per gram of dry weight at 0.100% concentration (reference value: 34.05 mg/g dry wt); assay type: ADME, organism-based; conditions: in vivo
Oryza sativa [9] = experiment: Effect on total protein level in Sogatella furcifera-resistanct Oryza sativa (rice) plant PR116 leaf sheath measured per gram of dry weight at 0.100% concentration (reference value: 7.06 mg/g fresh wt); assay type: ADME, organism-based; conditions: in vivo
Oryza sativa [10] = experiment: Effect on reducing sugar level in Sogatella furcifera-sensitive Oryza sativa (rice) plant ARC6248 leaf sheath measured per gram of dry weight at 0.100% concentration (reference value: 6.41 mg/g dry wt); assay type: ADME, organism-based; conditions: in vivo
Oryza sativa [11] = experiment: Effect on total phenols level in Sogatella furcifera-resistanct Oryza sativa (rice) plant PR116 leaf blade measured per gram of dry weight at 0.100% concentration (reference value: 8.08 mg/g dry wt); assay type: ADME, organism-based; conditions: in vivo
Oryza sativa [12] = experiment: Effect on total amino acids level in Sogatella furcifera-sensitive Oryza sativa (rice) plant ARC6248 leaf blade measured per gram of dry weight at 0.100% concentration (reference value: 3.54 mg/g fresh wt); assay type: ADME, organism-based; conditions: in vivo
Sogatella furcifera [13] = experiment: Insecticidal activity against Sogatella furcifera on insect-resistanct rice plant PR116 assessed as growth index at 0.100% concentration (reference value: 6.02%); assay type: functional
Sogatella furcifera [14] = experiment: Insecticidal activity against Sogatella furcifera on insect-resistanct rice plant PR116 assessed as nymphal survival at 0.100% concentration (reference value: 70.28%); assay type: functional
Sogatella furcifera [15] = experiment: Insecticidal activity against Sogatella furcifera on insect-sensitive rice plant ARC6248 assessed as nymphal duration at 0.100% concentration (reference value: 14.48 days); assay type: functional
Oryza sativa [16] = experiment: Effect on total amino acids level in Sogatella furcifera-sensitive Oryza sativa (rice) plant ARC6248 leaf sheath measured per gram of dry weight at 0.100% concentration (reference value: 2.11 mg/g fresh wt); assay type: ADME, organism-based; conditions: in vivo
Oryza sativa [17] = experiment: Effect on total phenols level in Sogatella furcifera-sensitive Oryza sativa (rice) plant ARC6248 leaf blade measured per gram of dry weight at 0.100% concentration (reference value: 17.08 mg/g dry wt); assay type: ADME, organism-based; conditions: in vivo
Sogatella furcifera [18] = experiment: Insecticidal activity against Sogatella furcifera on insect-sensitive rice plant ARC6248 assessed as nymphal survival at 0.100% concentration (reference value: 34.17%); assay type: functional
Oryza sativa [19] = experiment: Effect on total sugar level in Sogatella furcifera-resistanct Oryza sativa (rice) plant PR116 leaf sheath measured per gram of dry weight at 0.100% concentration (reference value: 30.27 mg/g dry wt); assay type: ADME, organism-based; conditions: in vivo
Oryza sativa [20] = experiment: Effect on reducing sugar level in Sogatella furcifera-sensitive Oryza sativa (rice) plant ARC6248 leaf blade measured per gram of dry weight at 0.100% concentration (reference value: 8.37 mg/g dry wt); assay type: ADME, organism-based; conditions: in vivo
Oryza sativa [21] = experiment: Effect on reducing sugar level in Sogatella furcifera-resistanct Oryza sativa (rice) plant PR116 leaf blade measured per gram of dry weight at 0.100% concentration (reference value: 9.35 mg/g dry wt); assay type: ADME, organism-based; conditions: in vivo
Oryza sativa [22] = experiment: Effect on total amino acids level in Sogatella furcifera-resistanct Oryza sativa (rice) plant PR116 leaf sheath measured per gram of dry weight at 0.100% concentration (reference value: 2.58 mg/g […]); assay type: ADME, organism-based; conditions: in vivo
Sogatella furcifera [23] = experiment: Insecticidal activity against Sogatella furcifera on insect-sensitive rice plant ARC6248 assessed as reproduction at 0.100% concentration; assay type: functional, organism-based
Sogatella furcifera [24] = experiment: Insecticidal activity against Sogatella furcifera on insect-sensitive rice plant ARC6248 assessed as growth index at 0.100% concentration (reference value: 2.38%); assay type: functional
Sogatella furcifera [25] = experiment: Insecticidal activity against Sogatella furcifera on insect-resistanct rice plant PR116 assessed as resurgence ratio at 0.100% concentration; assay type: functional
Oryza sativa [26] = experiment: Effect on total phenols level in Sogatella furcifera-resistanct Oryza sativa (rice) plant PR116 leaf sheath measured per gram of dry weight at 0.100% concentration (reference value: 5.75 mg/g dry wt); assay type: ADME, organism-based; conditions: in vivo
Oryza sativa [27] = experiment: Effect on total protein level in Sogatella furcifera-sensitive Oryza sativa (rice) plant ARC6248 leaf sheath measured per gram of dry weight at 0.100% concentration (reference value: 6.11 mg/g […]); assay type: ADME, organism-based; conditions: in vivo
Sogatella furcifera [28] = experiment: Insecticidal activity against Sogatella furcifera on insect-resistanct rice plant PR116 assessed as hopper population at 0.100% concentration; assay type: functional, organism-based
Sogatella furcifera [29] = experiment: Insecticidal activity against Sogatella furcifera on insect-sensitive rice plant ARC6248 assessed as resurgence ratio at 0.100% concentration; assay type: functional
Oryza sativa [30] = experiment: Effect on total amino acids level in Sogatella furcifera-resistanct Oryza sativa (rice) plant PR116 leaf blade measured per gram of dry weight at 0.100% concentration (reference value: 3.91 mg/g […]); assay type: ADME, organism-based; conditions: in vivo

CCOP(=S)(OCC)Oc1nc(Cl)c(Cl)cc1Cl [CHLORPYRIFOS]
Time (Sogatella furcifera [1]): 11.75 days
Activity (Oryza sativa [2]): 39.37 mg
Activity (Oryza sativa [3]): 18.22 mg
Activity (Oryza sativa [4]): 25.98 mg
Activity (Oryza sativa [5]): 7.72 mg
Activity (Oryza sativa [6]): 14.08 mg
Activity (Oryza sativa [7]): 19.44 mg
Activity (Oryza sativa [8]): 33.21 mg
Activity (Oryza sativa [9]): 7.72 mg
Activity (Oryza sativa [10]): 6.31 mg
Activity (Oryza sativa [11]): 7.67 mg
Activity (Oryza sativa [12]): 3 mg
growth inhibition (GI) (Sogatella furcifera [13]): 5.94%
Survival (Sogatella furcifera [14]): 69.45%
Time (Sogatella furcifera [15]): 14.63 days
Activity (Oryza sativa [16]): 1.75 mg
Activity (Oryza sativa [17]): 18.75 mg
Survival (Sogatella furcifera [18]): 32.5%
Activity (Oryza sativa [19]): 31.34 mg
Activity (Oryza sativa [20]): 7.5 mg
Activity (Oryza sativa [21]): 9.13 mg
Activity (Oryza sativa [22]): 2.22 mg
Activity (Sogatella furcifera [23]): inactive
growth inhibition (GI) (Sogatella furcifera [24]): 2.25%
Ratio (Sogatella furcifera [25]): <1
Activity (Oryza sativa [26]): 6.08 mg
Activity (Oryza sativa [27]): 5 mg
Activity (Sogatella furcifera [28]): inactive
Ratio (Sogatella furcifera [29]): <1
Activity (Oryza sativa [30]): 4 mg

O=S1OCC2C(CO1)C1(Cl)C(Cl)=C(Cl)C2(Cl)C1(Cl)Cl (stereo not given) [ENDOSULFAN]
Time (Sogatella furcifera [1]): 12 days
Activity (Oryza sativa [2]): 34.02 mg
Activity (Oryza sativa [3]): 16.56 mg
Activity (Oryza sativa [4]): 30 mg
Activity (Oryza sativa [5]): 7.17 mg
Activity (Oryza sativa [6]): 17.08 mg
Activity (Oryza sativa [7]): 18.33 mg
Activity (Oryza sativa [8]): 34.55 mg
Activity (Oryza sativa [9]): 7.78 mg
Activity (Oryza sativa [10]): 5.98 mg
Activity (Oryza sativa [11]): 10 mg
Activity (Oryza sativa [12]): 3.31 mg
growth inhibition (GI) (Sogatella furcifera [13]): 5.66%
Survival (Sogatella furcifera [14]): 67.5%
Time (Sogatella furcifera [15]): 14.5 days
Activity (Oryza sativa [16]): 2.46 mg
Activity (Oryza sativa [17]): 21.75 mg
Survival (Sogatella furcifera [18]): 32.22%
Activity (Oryza sativa [19]): 28.12 mg
Activity (Oryza sativa [20]): 7.94 mg
Activity (Oryza sativa [21]): 8.26 mg
Activity (Oryza sativa [22]): 2.4 mg
Activity (Sogatella furcifera [23]): inactive
growth inhibition (GI) (Sogatella furcifera [24]): 2.24%
Ratio (Sogatella furcifera [25]): <1
Activity (Oryza sativa [26]): 7.83 mg
Activity (Oryza sativa [27]): 5 mg
Activity (Sogatella furcifera [28]): inactive
Ratio (Sogatella furcifera [29]): <1
Activity (Oryza sativa [30]): 3.38 mg

CCOP(=S)(OCC)Oc1cnc2ccccc2n1 [QUINALPHOS]
Time (Sogatella furcifera [1]): 11.65 days
Activity (Oryza sativa [2]): 42.05 mg
Activity (Oryza sativa [3]): 21.56 mg
Activity (Oryza sativa [4]): 31.87 mg
Activity (Oryza sativa [5]): 11.31 mg
Activity (Oryza sativa [6]): 1308 mg
Activity (Oryza sativa [7]): 22.78 mg
Activity (Oryza sativa [8]): 38.84 mg
Activity (Oryza sativa [9]): 8.5 mg
Activity (Oryza sativa [10]): 8.8 mg
Activity (Oryza sativa [11]): 6.75 mg
Activity (Oryza sativa [12]): 3.61 mg
growth inhibition (GI) (Sogatella furcifera [13]): 6.24%
Survival (Sogatella furcifera [14]): 72.22%
Time (Sogatella furcifera [15]): 14.46 days
Activity (Oryza sativa [16]): 2.38 mg
Activity (Oryza sativa [17]): 17.08 mg
Survival (Sogatella furcifera [18]): 37.5%
Activity (Oryza sativa [19]): 30.27 mg
Activity (Oryza sativa [20]): 10 mg
Activity (Oryza sativa [21]): 13.04 mg
Activity (Oryza sativa [22]): 2.93 mg
Activity (Sogatella furcifera [23]): inactive
growth inhibition (GI) (Sogatella furcifera [24]): 2.61%
Ratio (Sogatella furcifera [25]): 1.31
Activity (Oryza sativa [26]): 5.67 mg
Activity (Oryza sativa [27]): 7.22 mg
Activity (Sogatella furcifera [28]): inactive
Ratio (Sogatella furcifera [29]): 1.13
Activity (Oryza sativa [30]): 4.89 mg
